Experiment in data set [1]: not given
This is another data set of the same source.

Molecules are shown by their SMILES. Where “and” joins values, the source holds several entries; their conditions need not be identical. Equal entries are not always repeated. Where two headings read alike, the source gives them in different places.

Regarding `NCCCOc1ccc(F)cc1[C@H]1CCCN1c1ccn2ncc(CO)c2n1`, the ring closure, isolated yield (the molecule shown is the open-chain precursor, amine bond, 14-membered ring, PS-PPh3/CCl4, DCM, 26.0 mM, 25.0 °C) is 57.5%.
As to `O=C1NC[C@H](O)Cn2cc(F)cc(c2=O)[C@H]2CCCN2c2ccn3ncc1c3n2`, in data set [1] (from O=C(NC[C@H](O)CCl)c1cnn2ccc(N3CCC[C@@H]3c3cc(F)c[nH]c3=O)nc12, amine bond, Cs2CO3, DMF, […], 85.0 °C, 2.0 h), the ring closure, yield of all isomers came to 12%.
For the setting “from CCOC(=O)c1cnn2ccc(N3CCC[C@@H]3c3cc(F)ccc3OCCCN)nc12, amide bond, 14-membered ring, DIEA, EtOH, 230.0 mM, 200.0 °C, 16.0 h”, `O=C1NCCCOc2ccc(F)cc2[C@H]2CCCN2c2ccn3ncc1c3n2` showed a ring closure, isolated yield of 50%.
Turning to `COC(=O)c1cnn2ccc(N3CCC[C@@H]3c3cc(F)cnc3CCC(C)(C)NC(=O)OC(C)(C)C)nc12`, the ring closure, isolated yield (the molecule shown is the open-chain precursor, amide bond, 13-membered ring, EDCI/HOBt/TEA, DMF, 39.4 mM, 45.0 °C, 3 steps) came to 48.3%.
In the case of `O=C1NC[C@H](O)COc2ccc(F)cc2C2CC(F)(F)CN2c2ccn3ncc1c3n2` (stereo partly shown), under “from O=C(NC[C@H](O)CCl)c1cnn2ccc(N3CC(F)(F)CC3c3cc(F)ccc3O)nc12, ether bond, 14-membered ring, Cs2CO3, DMF, 20.0 mM, 85.0 °C, 0.5 h”, the ring closure, isolated yield was 20% and 24%.
For `O=C1NCCCOc2ncc(F)cc2[C@H]2CCCN2c2ccn3ncc1c3n2`, the ring closure, isolated yield (from O=C(NCCCCl)c1cnn2ccc(N3CCC[C@@H]3c3cc(F)cnc3O)nc12, ether bond, 14-membered ring, Cs2CO3, DMF, […], 85.0 °C, 16.0 h) worked out at 44%.
In turn, `O=C1NCCCCn2cc(F)cc(c2=O)[C@H]2CCCN2c2ccn3ncc1c3n2` showed a ring closure, isolated yield (other bond, 15-membered ring) of 6%.
In turn, `O=C1NCCCc2ncc(F)cc2[C@H]2CCCN2c2ccn3ncc1c3n2` showed a ring closure, isolated yield (from NCCCc1ncc(F)cc1[C@H]1CCCN1c1ccn2ncc(C(=O)O)c2n1, amide bond, 13-membered ring, HATU/DIEA, DMF, 8.4 mM, 3.0 h) of 39%.
On to `O=C1Nc2ncccc2COc2ncc(F)cc2[C@H]2CCCN2c2ccn3ncc1c3n2`, for which the ring closure, isolated yield (from O=C(Nc1ncccc1CCl)c1cnn2ccc(N3CCC[C@@H]3c3cc(F)cnc3O)nc12, ether bond, 14-membered ring, Cs2CO3, DMF, 84.8 mM, 60.0 °C, 4.0 h, with chain assembly) was 2.2%.
`O=C1NCCCn2cc(F)cc(c2=O)[C@H]2CCCN2c2ccn3ncc1c3n2` registered a ring closure, yield of all isomers in data set [1] (from NCCCn1cc(F)cc([C@H]2CCCN2c2ccn3ncc(C(=O)O)c3n2)c1=O, amide bond, EDCI/HOBt, DCM, 26.4 mM, 25.0 °C, 6.0 h) of 39%.
Take `O=C1OCCOc2ncc(F)cc2[C@H]2CCCN2c2ccn3ncc1c3n2`: the ring closure, yield of all isomers in data set [1] (from O=C(OCCCl)c1cnn2ccc(N3CCC[C@@H]3c3cc(F)c[nH]c3=O)nc12, ether bond, Cs2CO3, DMF, 22.2 mM, 90.0 °C, 16.0 h) was found to be 22%.
With `O=C1NC[C@H](O)COc2ccc(F)cc2[C@H]2C[C@@H](O)CN2c2ccn3ncc1c3n2`, the ring closure, isolated yield (from O=C(NC[C@H](O)CCl)c1cnn2ccc(N3CC(O)C[C@@H]3c3cc(F)ccc3O)nc12, ether bond, 14-membered ring, Cs2CO3, DMF, 21.6 mM, 85.0 °C, 0.5 h) is 16.2%.
Regarding `Fc1ccc2c(c1)[C@H]1CCCN1c1ccn3ncc(c3n1)CNCCO2`, under “from NCCOc1ccc(F)cc1[C@H]1CCCN1c1ccn2ncc(C=O)c2n1, amine bond, 13-membered ring, Me4NBH(OAc)3, DCM, 8.4 mM, 25.0 °C, 16.0 h”, the ring closure, isolated yield was determined as 21.6%.

For the origin of these results see patent publication US9750744.
